Results: ChEMBL document CHEMBL6177919, “Development, biological evaluation, and molecular modelling of some benzene-sulfonamide derivatives as protein tyrosine phosphatase-1B inhibitors for managing diabetes mellitus and associated metabolic disorders” (RSC Med Chem, 2025)
pIC50: −log10 of the molar value.

How the values were obtained:
[1] = target: T1, Tyrosine-protein phosphatase non-receptor type 1 (Homo sapiens, UniProt P18031)
T1 sequence (P18031 whole entry): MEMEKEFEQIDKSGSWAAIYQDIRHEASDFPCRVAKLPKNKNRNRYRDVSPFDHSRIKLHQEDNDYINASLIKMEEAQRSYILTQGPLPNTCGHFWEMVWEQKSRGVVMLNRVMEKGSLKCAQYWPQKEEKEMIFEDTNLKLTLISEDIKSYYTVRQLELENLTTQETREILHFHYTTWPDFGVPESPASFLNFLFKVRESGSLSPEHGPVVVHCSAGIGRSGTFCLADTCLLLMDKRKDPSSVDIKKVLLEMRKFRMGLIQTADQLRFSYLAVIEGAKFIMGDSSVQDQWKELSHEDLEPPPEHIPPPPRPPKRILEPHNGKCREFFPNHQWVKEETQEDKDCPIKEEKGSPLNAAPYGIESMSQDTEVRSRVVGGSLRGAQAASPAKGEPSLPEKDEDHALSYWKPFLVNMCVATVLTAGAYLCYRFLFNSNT
Description: Inhibition of PTP1B (unknown origin)

[2] = target: T1, Tyrosine-protein phosphatase non-receptor type 1; remark: listed apart in the source
Description: Inhibition of human recombinant PTP1B incubated for 15 mins by fluorometric assay

[3] = target: T1, Tyrosine-protein phosphatase non-receptor type 1; remark: listed apart in the source
Description: Inhibition of C-terminal PTP1B (unknown origin)

Row | Structure (SMILES) | pIC50 [2] | further results
1 | O=C(O)c1ccc(CN2C(=O)S/C(=C\c3ccc(OCc4ccccc4)cc3)C2=O)cc1 | – | pIC50 [1]: 5.89
2 | O=C1CS/C(=N\c2ccccc2)N1c1ccc(S(=O)(=O)Nc2ncccn2)cc1 | 4.85 | –
3 | CC(=O)C1=CC(=O)N(c2ccc(S(=O)(=O)Nc3ncccn3)cc2)C1=O | 6.08 | –
4 | CCN1C(=O)C(C)S/C1=N\c1ccc(S(=O)(=O)Nc2ncccn2)cc1 (stereo not given) | 6.15 | –
5 | CN1CCN(CC(=O)Nc2ccc(S(=O)(=O)Nc3ncccn3)cc2)CC1 | 6.24 | –
6 | N#CC1=CC(=O)N(c2ccc(S(=O)(=O)Nc3ncccn3)cc2)C1=O | 6.14 | –
7 | CC/N=C1\SCC(=O)N1c1ccc(S(=O)(=O)Nc2ncccn2)cc1 | 4.78 | –
8 | O=C(CN1CCN(c2ccccc2)CC1)Nc1ccc(S(=O)(=O)Nc2ncccn2)cc1 | 5.44 | –
9 | CC1S/C(=N\c2ccc(S(=O)(=O)Nc3ncccn3)cc2)N(c2ccccc2)C1=O (stereo not given) | 5.72 | –
10 | CCN1C(=O)CS/C1=N\c1ccc(S(=O)(=O)Nc2ncccn2)cc1 | 6.21 | –
11 | CC1O/C(=N\c2ccc(S(=O)(=O)Nc3ncccn3)cc2)N(c2ccccc2)C1=O (stereo not given) | 5.71 | –
12 | N=C1SCC(=O)N1c1ccc(S(=O)(=O)Nc2ncccn2)cc1 | 5.05 | –
13 | O=S(=O)(Nc1ncccn1)c1ccc(NCc2nc3ccccc3[nH]2)cc1 | 6.17 | –
14 | COC(=O)CC[C@@H](C)[C@H]1CC[C@H]2[C@@H]3[C@H](O)C[C@H]4C[C@H](NCCCCNCc5ccccn5)CC[C@]4(C)[C@H]3CC[C@]12C | – | pIC50 [3]: 7.00
15 | CCc1ccc(CCOc2ccc(CC3SC(=O)NC3=O)cc2)nc1 (stereo not given) [PIOGLITAZONE] | 6.19 | –
